Laboratory results as given in the supplement of paper PMC10307832.

Legend:
Test in all cases: relative viability (nuclei count vs DMSO), 5 days (fraction); higher = more cells survive
HG-5-88-01 = compound: CC(C)S(=O)(=O)C1=CC=CC=C1NC2=NC(=NC(=C2Cl)N)NC3=C(C=C(C=C3)N4CCC(CC4)C(=O)N)OC [HG-5-88-01]
Method in brief: (§1)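 Only plates meeting two conditions passed: control CV below 25% and at least one doubling. Lung cancer cell lines, kept overnight at 37 °C in 1536-well plates, were pinned with five library-drug doses (not always all listed) √10 apart on vehicle-anchored plates and grown 5 days without medium change. A one-step fix, permeabilisation and Hoechst stain preceded 4× imaging and MetaXpress nuclear counting. Viability equals treated-well nuclei divided by vehicle-well nuclei, as the median over plates.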

Vatalanib = compound: Clc1ccc(Nc2nnc(Cc3ccncc3)c3ccccc23)cc1 [Vatalanib]
Method in brief: as §1

AZ23 = compound: CC(C)Oc1cc(Nc2nc(N[C@@H](C)c3ccc(F)cn3)ncc2Cl)n[nH]1 [AZ23]
Method in brief: as §1

[1] = compound: C[C@@H]1CN(CC(=O)Nc2ccc3c(c2)Cc2cccc(-c4cc(=O)cc(N5CCOCC5)o4)c2S3)C[C@H](C)O1
Method in brief: as §1

Embelin = compound: CCCCCCCCCCCC1=C(O)C(=O)C=C(O)C1=O [Embelin]
Method in brief: as §1

| Cell Line | relative viability (HG-5-88-01; 0.04 µM) | relative viability (HG-5-88-01; 0.1265 µM) | relative viability (HG-5-88-01; 0.4 µM) | relative viability (HG-5-88-01; 1.265 µM) | relative viability (HG-5-88-01; 4 µM) | relative viability (Vatalanib; 0.04 µM) | relative viability (Vatalanib; 0.1265 µM) | relative viability (Vatalanib; 0.4 µM) | relative viability (Vatalanib; 1.265 µM) | relative viability (Vatalanib; 4 µM) | relative viability (AZ23; 0.01 µM) | relative viability (AZ23; 0.03162 µM) | relative viability (AZ23; 0.3162 µM) | relative viability ([1]; 0.04 µM) | relative viability ([1]; 0.1265 µM) | relative viability ([1]; 0.4 µM) | relative viability ([1]; 4 µM) | relative viability (Embelin; 0.08 µM) | relative viability (Embelin; 0.8 µM) | relative viability (Embelin; 2.53 µM) | relative viability (Embelin; 8 µM) |
| --- | --- | --- | --- | --- | --- | --- | --- | --- | --- | --- | --- | --- | --- | --- | --- | --- | --- | --- | --- | --- | --- |
| 201T | 1.01 | 0.941 | 0.951 | 1.03 | 1.03 | 0.975 | 0.975 | 1.05 | 0.929 | 0.953 | 1.05 | 1.06 | 1.07 | 0.996 | 0.944 | 0.992 | 0.961 | 0.985 | 1.02 | 1.11 | 0.966 |
| A549 | 0.997 | 0.954 | 0.909 | 0.726 | 0.75 | 1.01 | 0.944 | 0.998 | 0.928 | 0.929 | 1.23 | 1.12 | 0.922 | 0.958 | 0.922 | 0.918 | 0.806 | 0.992 | 1.06 | 1.12 | 0.97 |
| A-427 | 0.94 | 1.02 | 1.02 | 1.11 | 0.534 | 1.03 | 0.97 | 0.983 | 0.863 | 0.989 | 0.921 | 1.07 | 1.15 | 0.956 | 0.945 | 1.06 | 0.938 | 1.06 | 1.03 | 1.04 | 0.943 |
| ABC-1 | 0.825 | 1 | 0.732 | 0.75 | 0.778 | 0.977 | 0.647 | 0.803 | 0.89 | 0.851 | 0.82 | 1.18 | 1.02 | – | 1.11 | 0.983 | 1.12 | 0.866 | 1.11 | 0.893 | 1.03 |
| BEN | 0.866 | 1.07 | 0.884 | 0.873 | 1.05 | 0.954 | 0.904 | 0.951 | 0.882 | 0.946 | 1.05 | 1.12 | 0.994 | 0.929 | 0.881 | 1.12 | 0.955 | 1.04 | 1.14 | 1.1 | 1.02 |
| CAL-12T | 0.959 | 1.09 | 0.952 | 0.746 | 0.459 | 0.978 | 0.946 | 0.988 | 0.867 | 0.885 | 0.692 | 1.09 | 0.932 | 1.04 | 1.01 | 1.06 | 0.549 | 1.01 | 1.18 | 0.855 | 0.986 |
| COR-L23 | 1.05 | 1.08 | 0.964 | 0.952 | 0.867 | 0.971 | 0.977 | 1.13 | 1.01 | 0.994 | 1.03 | 1.11 | 1.15 | 1.03 | 1.07 | 1.06 | 0.877 | 1 | 1.18 | 1.06 | 1.16 |
| COR-L 105 | 0.825 | 0.969 | 0.883 | 0.726 | 0.685 | 0.901 | 0.895 | 1.03 | 0.892 | 0.835 | 0.843 | 1.1 | 1.04 | 0.921 | 1.01 | 1.05 | 0.805 | 1.04 | 1.1 | 0.89 | 0.981 |
| Calu-6 | 1.04 | 0.965 | 0.946 | 0.948 | 0.854 | 1.06 | 0.958 | 1.06 | 0.949 | 0.976 | – | 1.09 | 1.01 | 1.04 | 0.951 | 1.03 | 0.74 | 1.01 | 1.09 | 1.07 | 1.07 |
| ChaGo-K-1 | 1.02 | 1.03 | 0.936 | 1.03 | 0.841 | 0.87 | 0.983 | 1.01 | 0.962 | 1.06 | 1.2 | 1.09 | 1.04 | 0.826 | 0.961 | 0.967 | 0.979 | 1.06 | 1.01 | 1.05 | 0.983 |
| EBC-1 | 1.02 | 0.851 | 0.98 | 0.933 | 0.901 | 1.06 | 0.895 | 1.06 | 0.955 | 0.896 | 1.04 | 1.12 | 0.931 | 1.02 | 0.952 | 0.712 | 0.535 | 1 | 1.11 | 1.02 | 0.979 |
| EKVX | 0.923 | 1.02 | 0.875 | – | 0.934 | 0.934 | 0.849 | 0.975 | 0.818 | 0.871 | 0.932 | 1.11 | 0.976 | 0.975 | 0.971 | 0.898 | 0.882 | 0.966 | 1.02 | 0.964 | 1.03 |
| EMC-BAC-2 | 0.977 | 1.04 | 0.85 | 0.93 | 0.887 | 0.966 | 0.974 | 0.974 | – | 0.949 | 0.886 | 1.08 | 0.986 | 0.95 | 0.985 | 0.957 | 1.02 | 1.01 | 1.11 | 0.83 | 0.83 |
| EPLC-272H | 0.985 | 0.894 | 0.984 | 0.753 | 0.0869 | 0.958 | 0.906 | 1.13 | 0.889 | 0.89 | 0.674 | 1.11 | 0.745 | 0.982 | 1 | 1.09 | 0.932 | 0.969 | 1.18 | 0.962 | 0.806 |
